Legend:
Type in all cases: biochemical
[1] = biological target: T1, JAK3 (Homo sapiens, UniProt P52333); assay: JAK enzymatic assay (peptide mobility shift), JAK3; settings: recombinant JAK3 1 nM, ATP 4 μM, 1 μM JAKtide peptide, 90 minutes
T1 construct: purchased Invitrogen Corporation, Madison, Wis; PV3855
T1 sequence (P52333 1-1124): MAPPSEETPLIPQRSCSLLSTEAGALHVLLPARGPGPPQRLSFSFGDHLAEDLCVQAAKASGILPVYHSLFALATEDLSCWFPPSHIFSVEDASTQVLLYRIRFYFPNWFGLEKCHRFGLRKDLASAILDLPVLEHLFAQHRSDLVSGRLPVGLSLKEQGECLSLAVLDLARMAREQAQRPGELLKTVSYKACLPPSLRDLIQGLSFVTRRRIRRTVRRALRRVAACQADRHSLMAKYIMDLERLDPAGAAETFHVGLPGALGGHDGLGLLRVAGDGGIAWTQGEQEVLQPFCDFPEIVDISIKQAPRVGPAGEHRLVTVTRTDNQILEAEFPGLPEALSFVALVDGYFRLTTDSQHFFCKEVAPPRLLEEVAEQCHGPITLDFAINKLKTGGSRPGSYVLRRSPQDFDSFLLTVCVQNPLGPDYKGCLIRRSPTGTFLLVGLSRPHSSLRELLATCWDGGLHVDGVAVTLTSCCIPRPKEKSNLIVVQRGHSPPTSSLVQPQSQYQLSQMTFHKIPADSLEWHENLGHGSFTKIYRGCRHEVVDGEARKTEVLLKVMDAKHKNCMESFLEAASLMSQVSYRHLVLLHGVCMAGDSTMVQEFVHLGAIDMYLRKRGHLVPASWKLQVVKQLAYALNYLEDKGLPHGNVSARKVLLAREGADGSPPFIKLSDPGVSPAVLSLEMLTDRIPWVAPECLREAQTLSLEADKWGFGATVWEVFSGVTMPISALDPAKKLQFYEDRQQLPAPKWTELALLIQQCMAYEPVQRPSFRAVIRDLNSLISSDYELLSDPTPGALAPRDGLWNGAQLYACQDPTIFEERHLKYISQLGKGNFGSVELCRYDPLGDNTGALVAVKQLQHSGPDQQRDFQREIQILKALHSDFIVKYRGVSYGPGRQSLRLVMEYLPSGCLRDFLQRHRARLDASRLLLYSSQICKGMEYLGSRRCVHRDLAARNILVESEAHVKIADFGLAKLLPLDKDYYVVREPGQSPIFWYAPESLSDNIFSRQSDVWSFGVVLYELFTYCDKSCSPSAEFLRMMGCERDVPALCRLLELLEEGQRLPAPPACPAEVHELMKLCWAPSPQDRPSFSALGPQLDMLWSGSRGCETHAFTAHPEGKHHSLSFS
Description: Recombinant JAK1 (Catalog Number PV4775), JAK2 (Catalog Number PV4210) and JAK3 (Catalog Number PV3855) were purchased from (Invitrogen Corporation, Madison, Wis.). Tyk2 (His-Tyk2 (888-1182, C936S, C1142S)) used in this study was expressed and purified at Pfizer Laboratories. Adenosine 5′-triphosphate (ATP) was obtained from (Sigma Chemical Company, St. Louis, Mo.). […] Coating Reagent 3 was purchased from (Caliper Life Sciences, Hopkinton, Mass.).
(§1) A peptide mobility shift assay was used to quantify the phosphorylation of the JAKtide (JAK2 and JAK3) or the IRS-1 peptide ([…] and Tyk2). Reactions were carried out in a 384-well plate (Matrical MP-101) in a 10 μL total volume. Reaction mixtures contained 20 mM HEPES, pH 7.4, 10 mM magnesium chloride, 0.01% bovine serum albumin (BSA), 0.0005% Tween-20, ATP (4 μM for JAK2 and JAK3, 40 μM for JAK1 and 7 μM for Tyk2)), 2% DMSO and 1 μM peptide substrate (JAKtide for JAK2 and JAK3 and IRS-1 peptide for JAK1 and Tyk2). Compounds were diluted serially in 100% dimethyl sulfoxide and tested in an 11 point dose response in duplicate or quadruplicate (200 nl of compound/DMSO was added per 10 μL reaction). The reactions were initiated by the addition of enzyme to the final concentration of 2 nM JAK2, 1 nM JAK3, 12 nM Tyk2 or 20 nM JAK1. The assay was run for 240 minutes for JAK1, 150 minutes for JAK2, 90 minutes for JAK3 and 70 minutes for Tyk2. The assays were stopped at the specified times with 20 uL of 140 mM HEPES, 22.5 mM EDTA and 0.15% Coating Reagent 3. The plates were placed on a LabChip 3000 (LC3000) instrument from (Caliper Life Sciences) to measure the formation of phosphorylated peptide. Data was analyzed using Hits Well Analyzer Software from (Caliper Life Sciences) to obtain the amount of product formed.
(§2) Data was then imported into an internal application where each data point is expressed as % inhibition based on uninhibited and no enzyme controls. Dose-response data is then fit using a 4 parameter logistic equation (Equation 1) to determine an IC50.
(§3) Where max is the fitted uninhibited value, min is the fitted complete inhibition value, and s is the slope factor.

[2] = biological target: T2, JAK2 (Homo sapiens, UniProt O60674); assay: JAK enzymatic assay (peptide mobility shift), JAK2; settings: recombinant JAK2 2 nM, ATP 4 μM, 1 μM JAKtide peptide, 150 minutes
T2 construct: purchased Invitrogen Corporation, Madison, Wis; PV4210
T2 sequence (O60674 whole entry): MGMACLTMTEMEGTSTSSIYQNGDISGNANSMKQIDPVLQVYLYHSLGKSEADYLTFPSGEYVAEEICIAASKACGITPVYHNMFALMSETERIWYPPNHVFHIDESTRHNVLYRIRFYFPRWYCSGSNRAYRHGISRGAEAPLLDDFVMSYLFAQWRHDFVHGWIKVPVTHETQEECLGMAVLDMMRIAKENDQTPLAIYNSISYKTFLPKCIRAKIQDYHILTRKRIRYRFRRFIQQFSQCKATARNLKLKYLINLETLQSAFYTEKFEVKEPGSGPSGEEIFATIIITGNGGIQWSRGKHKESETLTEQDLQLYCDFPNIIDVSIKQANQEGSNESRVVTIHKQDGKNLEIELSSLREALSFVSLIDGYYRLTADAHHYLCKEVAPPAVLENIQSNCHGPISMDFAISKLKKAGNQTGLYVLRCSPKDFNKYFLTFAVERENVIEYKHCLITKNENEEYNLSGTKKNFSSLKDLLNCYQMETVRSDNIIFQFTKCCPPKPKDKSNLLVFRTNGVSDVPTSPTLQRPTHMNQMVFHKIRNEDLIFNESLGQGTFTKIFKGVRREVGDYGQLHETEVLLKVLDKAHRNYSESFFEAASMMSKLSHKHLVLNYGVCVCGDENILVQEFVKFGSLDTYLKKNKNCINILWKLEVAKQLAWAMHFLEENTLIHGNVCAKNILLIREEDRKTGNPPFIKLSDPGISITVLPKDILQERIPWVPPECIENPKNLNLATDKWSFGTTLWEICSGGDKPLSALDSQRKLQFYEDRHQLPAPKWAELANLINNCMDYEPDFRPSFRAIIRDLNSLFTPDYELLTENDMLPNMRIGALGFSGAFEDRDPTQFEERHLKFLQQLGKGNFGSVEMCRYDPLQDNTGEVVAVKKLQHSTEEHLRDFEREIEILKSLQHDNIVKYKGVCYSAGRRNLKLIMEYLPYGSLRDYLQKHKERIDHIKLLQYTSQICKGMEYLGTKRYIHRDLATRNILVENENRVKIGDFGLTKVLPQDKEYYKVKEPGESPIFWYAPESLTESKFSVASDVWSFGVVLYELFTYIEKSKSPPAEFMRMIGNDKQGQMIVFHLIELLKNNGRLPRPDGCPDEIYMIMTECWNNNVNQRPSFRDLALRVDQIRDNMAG
Description: (§4) Recombinant JAK1 (Catalog Number PV4775), JAK2 (Catalog Number PV4210) and JAK3 (Catalog Number PV3855) were purchased from (Invitrogen Corporation, Madison, Wis.). Tyk2 (His-Tyk2 (888-1182, C936S, C1142S)) used in this study was expressed and purified at Pfizer Laboratories. Adenosine 5′-triphosphate (ATP) was obtained from (Sigma Chemical Company, St. Louis, Mo.). The JAKtide peptide (peptide sequence, FITC-[…]) used for the JAK2 and JAK3 assays and the IRS-1 peptide (peptide sequence, 5-FAM-[…]) used for the JAK1 and Tyk2 assays were purchased from (American Peptide Company, Sunnyvale, Calif.). Coating Reagent 3 was purchased from (Caliper Life Sciences, Hopkinton, Mass.).
as §1, §2, §3

[3] = biological target: T3, JAK1 (Homo sapiens, UniProt P23458); assay: JAK enzymatic assay (peptide mobility shift), JAK1; settings: recombinant JAK1 20 nM, ATP 40 μM, 1 μM IRS-1 peptide, 240 minutes
T3 construct: purchased Invitrogen Corporation, Madison, Wis; PV4775
T3 sequence (P23458 whole entry): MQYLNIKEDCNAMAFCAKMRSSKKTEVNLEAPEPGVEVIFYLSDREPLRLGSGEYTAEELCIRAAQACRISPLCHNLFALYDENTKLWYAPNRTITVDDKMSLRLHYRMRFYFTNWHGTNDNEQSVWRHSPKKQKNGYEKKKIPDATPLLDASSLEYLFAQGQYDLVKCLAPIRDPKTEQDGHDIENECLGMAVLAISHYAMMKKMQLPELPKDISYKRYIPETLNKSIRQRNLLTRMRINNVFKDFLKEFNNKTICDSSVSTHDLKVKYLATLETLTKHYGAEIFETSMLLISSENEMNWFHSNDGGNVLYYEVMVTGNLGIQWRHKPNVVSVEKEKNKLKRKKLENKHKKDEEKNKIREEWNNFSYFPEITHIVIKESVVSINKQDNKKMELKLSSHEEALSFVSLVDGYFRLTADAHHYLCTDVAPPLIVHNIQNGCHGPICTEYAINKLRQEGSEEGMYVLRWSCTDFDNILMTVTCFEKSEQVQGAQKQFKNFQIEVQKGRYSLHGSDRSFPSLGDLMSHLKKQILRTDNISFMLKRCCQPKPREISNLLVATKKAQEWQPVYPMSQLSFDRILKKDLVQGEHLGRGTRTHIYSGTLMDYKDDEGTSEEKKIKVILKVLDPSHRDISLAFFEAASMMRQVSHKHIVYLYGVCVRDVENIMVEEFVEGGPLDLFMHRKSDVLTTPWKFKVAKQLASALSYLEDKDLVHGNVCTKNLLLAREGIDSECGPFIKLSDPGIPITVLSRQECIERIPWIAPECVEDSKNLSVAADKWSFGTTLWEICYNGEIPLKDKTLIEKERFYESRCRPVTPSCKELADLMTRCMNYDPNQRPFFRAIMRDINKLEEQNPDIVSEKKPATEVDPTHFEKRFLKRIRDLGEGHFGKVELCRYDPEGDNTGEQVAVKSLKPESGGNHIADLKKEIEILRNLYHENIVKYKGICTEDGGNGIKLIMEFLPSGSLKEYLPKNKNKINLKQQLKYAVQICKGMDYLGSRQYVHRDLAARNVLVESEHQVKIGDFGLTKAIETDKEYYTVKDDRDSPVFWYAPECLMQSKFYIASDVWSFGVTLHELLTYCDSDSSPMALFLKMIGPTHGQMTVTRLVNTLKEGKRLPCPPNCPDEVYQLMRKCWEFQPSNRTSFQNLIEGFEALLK
Description: as §4, §1, §2, §3

IC50 [1]	IC50 [2]	IC50 [3]	Structure (SMILES)
145 nM	55.4 nM	9.13 nM	CC(C)c1ccc(CCNS(=O)(=O)C[C@H]2CC[C@H](N(C)c3ncnc4[nH]ccc34)CC2)c(F)c1 [Example 38, N-[2-(2-fluoro-4-isopropylphenyl)ethyl]-1-{trans-4-[methyl(7H-pyrrolo[2,3-d]pyrimidin-4-yl)amino]cyclohexyl}-methanesulfonamide]
292 nM	123 nM	11.6 nM	CN(c1ncnc2[nH]ccc12)[C@H]1CC[C@H](CS(=O)(=O)NC2CC(NC(=O)OC(C)(C)C)C2)CC1 (stereo partly drawn) [Example 41, tert-butyl (3-{[({trans-4-[methyl(7H-pyrrolo[2,3-d]-pyrimidin-4-yl)amino]-cyclohexyl}methyl)sulfonyl]amino}cyclobutyl)-carbamate]
212 nM	33.3 nM	8.73 nM	CN(c1ncnc2[nH]ccc12)[C@H]1CC[C@H](CS(=O)(=O)N[C@H]2CC[C@H](C(C)(C)O)CC2)CC1 [Example 37, N-[trans-4-(1-hydroxy-1-methylethyl)cyclohexyl]-1-{trans-4-[methyl(7H-pyrrolo[2,3-d]pyrimidin-4-yl)amino]cyclohexyl}-methanesulfonamide]
342 nM	30.5 nM	18.6 nM	Cc1cc(NS(=O)(=O)C[C@H]2CC[C@H](N(C)c3ncnc4[nH]ccc34)CC2)n[nH]1 [Example 23, N-(5-methyl-1H-pyrazol-3-yl)-1-{trans-4-[methyl(7H-pyrrolo[2,3-d]pyrimidin-4-yl)amino]cyclohexyl}-methanesulfonamide]
531 nM	39.7 nM	10.5 nM	CN(c1ncnc2[nH]ccc12)[C@H]1CC[C@H](CS(=O)(=O)NCC(C)(F)c2cccc(F)c2)CC1 (stereo partly drawn) [Example 9, N-[2-fluoro-2-(3-fluoro-phenyl)propyl]-1-{trans-4-[methyl(7H-pyrrolo[2,3-d]-pyrimidin-4-yl)amino]-cyclohexyl}-methanesulfonamide]
511 nM	55.5 nM	16.5 nM	CN(c1ncnc2[nH]ccc12)[C@H]1CC[C@H](CS(=O)(=O)NCCc2ccc(C(F)(F)F)cc2)CC1 [Example 12, 1-{trans-4-[methyl(7H-pyrrolo[2,3-d]pyrimidin-4-yl)amino]cyclohexyl}-N-{2-[4-(trifluoromethyl)-phenyl]ethyl}-methanesulfonamide]
162 nM	54.2 nM	19.3 nM	CN(c1ncnc2[nH]ccc12)[C@H]1CC[C@@H](CS(=O)(=O)NCc2ccccc2)CC1 [Example 54, N-benzyl-1-{cis-4-[methyl(7H-pyrrolo[2,3-d]pyrimidin-4-yl)amino]cyclohexyl}-methanesulfonamide]
201 nM	34.1 nM	11.4 nM	CN(c1ncnc2[nH]ccc12)[C@H]1CC[C@@H](CS(=O)(=O)NCC2CC2)CC1 [Example 55, N-(cyclopropylmethyl)-1-{cis-4-[methyl(7H-pyrrolo[2,3-d]pyrimidin-4-yl)amino]cyclohexyl}-methanesulfonamide]
301 nM	34.1 nM	11 nM	COc1cccc(CCNS(=O)(=O)C[C@H]2CC[C@H](N(C)c3ncnc4[nH]ccc34)CC2)c1 [Example 10, N-[2-(3-methoxyphenyl)-ethyl]-1-{trans-4-[methyl-(7H-pyrrolo[2,3-d]pyrimidin-4-yl)amino]cyclohexyl}-methanesulfonamide]

The next lines start with the molecule.

Structure (SMILES)	IC50 [1]	IC50 [2]	IC50 [3]
CN(c1ncnc2[nH]ccc12)[C@H]1CC[C@H](CS(=O)(=O)NCCc2ccccc2)CC1 [Example 15, 1-{trans-4-[methyl(7H-pyrrolo-[2,3-d]pyrimidin-4-yl)amino]-cyclohexyl}-N-(2-phenylethyl)-methanesulfonamide]	87.8 nM	12 nM	2.87 nM
CN(c1ncnc2[nH]ccc12)[C@H]1CC[C@H](CS(=O)(=O)NC2CC2)CC1 [Example 1, N-cyclopropyl-1-{trans-4-[methyl(7H-pyrrolo[2,3-d]pyrimidin-4-yl)amino]cyclohexyl}methanesulfonamide]	224 nM	45.4 nM	10 nM
CN(Cc1cnccn1)S(=O)(=O)C[C@H]1CC[C@H](N(C)c2ncnc3[nH]ccc23)CC1 [Example 43, N-methyl-1-{trans-4-[methyl(7H-pyrrolo[2,3-d]-pyrimidin-4-yl)amino]-cyclohexyl}-N-(pyrazin-2-ylmethyl)-methanesulfonamide]	517 nM	53.2 nM	14.9 nM
CN(c1ncnc2[nH]ccc12)[C@H]1CC[C@H](CS(=O)(=O)Nc2ccc3c(c2)OCCCO3)CC1 [Example 27, N-(3,4-dihydro-2H-1,5-benzodioxepin-7-yl)-1-{trans-4-[methyl(7H-pyrrolo[2,3-d]-pyrimidin-4-yl)amino]-cyclo-hexyl}methanesulfonamide]	54.3 nM	7.47 nM	2.19 nM
CN(c1ncnc2[nH]ccc12)[C@H]1CC[C@H](CS(=O)(=O)NCc2cccnc2)CC1 [Example 19, 1-{trans-4-[methyl(7H-pyrrolo[2,3-d]pyrimidin-4-yl)amino]cyclohexyl}-N-(pyridin-3-ylmethyl)-methanesulfonamide]	376 nM	57.9 nM	9.3 nM
CN(c1ncnc2[nH]ccc12)[C@H]1CC[C@H](CS(=O)(=O)Nc2ccc(C#N)cc2)CC1 [Example 21, N-(4-cyanophenyl)-1-{trans-4-[methyl(7H-pyrrolo[2,3-d]pyrimidin-4-yl)amino]cyclohexyl}-methanesulfonamide]	140 nM	52.4 nM	10.3 nM
COc1ccc(CNS(=O)(=O)C[C@H]2CC[C@@H](N(C)c3ncnc4[nH]ccc34)CC2)cc1 [Example 56, N-(4-methoxybenzyl)-1-{cis-4-[methyl(7H-pyrrolo[2,3-d]pyrimidin-4-yl)amino]cyclohexyl}-methanesulfonamide]	114 nM	36.6 nM	10.7 nM

Reference: patent US8372854B2, “Pyrrolo[2,3-D]pyrimidine compounds” (Pfizer Inc., priority 2009, dated 2013)
